Results on 18 compounds are retold here after patent publication US10414763B2 (CANCER RESEARCH TECHNOLOGY LIMITED, priority 2014, dated 2019).

Some results are limits rather than exact numbers.

The assay has as its target T1, full-length human PKCι (Homo sapiens, UniProt P41743).
T1 construct: Recombinant, full-length human PKCι expressed in Sf21 insect cells is also commercially available; purchased EMD Millipore; host or cells: Sf21 insect cells (baculovirus)
T1 sequence (P41743 1-596): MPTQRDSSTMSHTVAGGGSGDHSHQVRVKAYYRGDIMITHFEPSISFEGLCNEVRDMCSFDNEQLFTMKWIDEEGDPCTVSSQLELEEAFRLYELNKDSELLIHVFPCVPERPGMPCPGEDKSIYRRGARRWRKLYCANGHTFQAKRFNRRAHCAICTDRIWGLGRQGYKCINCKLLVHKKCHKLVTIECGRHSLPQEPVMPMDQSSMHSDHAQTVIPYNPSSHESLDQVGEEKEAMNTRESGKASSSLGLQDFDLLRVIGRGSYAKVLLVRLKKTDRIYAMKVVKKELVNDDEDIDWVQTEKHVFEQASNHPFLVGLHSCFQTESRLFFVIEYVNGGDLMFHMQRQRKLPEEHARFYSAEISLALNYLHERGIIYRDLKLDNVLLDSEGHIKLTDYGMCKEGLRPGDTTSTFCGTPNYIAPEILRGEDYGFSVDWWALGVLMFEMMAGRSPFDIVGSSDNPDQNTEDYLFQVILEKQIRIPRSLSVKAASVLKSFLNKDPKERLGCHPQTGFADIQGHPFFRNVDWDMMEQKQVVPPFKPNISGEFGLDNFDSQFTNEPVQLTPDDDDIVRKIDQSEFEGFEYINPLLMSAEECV
Kind of assay: PKCι IC50 IMAP fluorescence polarisation assay, full-length enzyme, 150 μM ATP. The settings on record: read-out: IC50 in IMAP assay against full length PKCi at 150 μM ATP. Format: biochemical. The source says: Assays are based on the ability of PKCι to phosphorylate a commercially available peptide substrate in vitro. The peptide substrate is FAM-PKCε pseudopeptide derived peptide, and comprises the amino acid sequence 5FAM-ERMRPRKRQGSVRRRV-NH2. Recombinant, full-length human PKCι expressed in Sf21 insect cells is also commercially available. Recombinant, kinase-domain human PKCι is expressed and purified in-house.
The procedure below explains how dose response curves for inhibitors of PKCι are obtained. The screen described is for a 384 well format but the assay can be adapted to 1536 or other formats as required.
Compounds to be tested are dissolved in 100% DMSO. Compounds are diluted as required to give a final concentration of 4% DMSO (v/v) in the assay. 1 μl is plated into 384 well black low-binding flat bottomed assay plates which are used immediately. Dilutions and additions of compound to assay plates are carried out using Matrix WellMate® and Matrix PlateMate® Plus liquid handling systems.
On the day of the screen PKCι/substrate working solution, and ATP working solution, are prepared in buffer containing 20 mM tris-HCl pH7.5, 10 mM MgCl2, 0.01% Triton X100, 250 μM EGTA and 1 mM DTT. The final concentration of PKCι used varies depending on the batch of protein but is typically 15 pM. The final concentration of peptide substrate in the assay is 100 nM. ATP is used at a final concentration of 150 μM or 25 μM in the assays containing full-length or kinase-domain PKCι respectively, which corresponds to five times or equal to the KM^APP for ATP for each enzyme, respectively. The final buffer concentration in the assay is 18 mM tris-HCl pH7.5, 9 mM MgCl2, 0.009% Triton X100, 225 μM EGTA and 0.9 mM DTT. Relevant controls are included, namely no compound and no enzyme. 5 μl PKCι/substrate working solution at 30 pM and 200 nM, respectively, is added to the wells, followed by 4 μl ATP working solution at 375 μM or 62.5 μM for full-length or kinase-domain PKCι respectively, using a 16 channel Matrix pipette. The reaction is allowed to incubate for 60 minutes at room temperature, before the reaction is stopped and developed by the addition of 20 μl IMAP™ development reagent (Molecular Devices). IMAP development reagent consists of 0.25% (v/v) IMAP progressive binding reagent, 17% (v/v) IMAP progressive binding buffer A and 3% (v/v) IMAP progressive binding buffer B. The plates are then incubated for 2 hours at room temperature before being read using an appropriate plate reader, for example a Molecular Devices HT Analyst or a BMG Pherastar. Plates are read using a fluorescence polarisation protocol with excitation at 485 nm and emission at 530 nm, and dichroic mirror at 505 nm.
Percentage inhibition values are calculated from fluorescence polarisation values, using the no compound and no enzyme control values as 0% and 100% inhibition, respectively. IC50 determination is performed with ExcelFit software (IDBS) using curve fit 205. Z′ factors are determined for each plate tested and are all above 0.5.
Alternatively, compounds were tested for their ability to inhibit the kinase activity of recombinant human baculovirus-expressed PKCiota using the immobilized metal-ion affinity particle (IMAP®) fluorescence polarization detection system (Molecular Devices, Sunnyvale, Calif.). PKCiota/IMAP® substrate mixture (2×) was prepared in 1×IMAP assay buffer (Molecular Devices) containing 1 mM DTT so that the final assay concentrations were 15 pM PKCiota (EMD Millipore, Billerica, Mass.) and 100 nM 5-fluorescein-amidite (FAM)-PKC ? -pseudosubstrate (5-FAM-ERMRPRKRQGSVRRRV-NH2) (Molecular Devices). The 2× working solution was added at 5 μL/well into a 384-well black, non-binding, flat bottom assay plate (Corning, Corning, N.Y.). […]

With `Fc1cc(F)c(Nc2cc(-c3nc(N4CCC5NCCC54)c4c(C5CCC5)cncc4n3)ccn2)nc1F` (stereo not drawn) [Example 98, {4-[5-Cyclobutyl-4-(hexahydro-pyrrolo[3,2-b]pyrrol-1-yl)-pyrido[3,4-d]pyrimidin-2-yl]-pyridin-2-yl}-(3,5,6-trifluoro-pyridin-2-yl)-amine], the IC50 was under 100 nM.
Regarding `C[C@@H]1CNCC[C@H]1Nc1nc(-c2ccnc(Nc3nc4ccccn4n3)c2)nc2cncc(C3CCC3)c12` (racemic) [Example 277, {5-Cyclobutyl-2-[2-([1,2,4]triazolo[1,5-a]pyridin-2-ylamino)-pyridin-4-yl]-pyrido[3,4-d]pyrimidin-4-yl}-(rac-(3R,4R)-3-methyl-piperidin-4-yl)-amine], the IC50 was under 100 nM.
Under `FC(F)(F)c1cc2c(-c3nc(N4CC[C@H]5NCC[C@H]54)c4c(C5CC5)cncc4n3)ccnc2[nH]1` (racemic) [Example 19, (±)-5-Cyclopropyl-4-(3,6-cis)-hexahydro-pyrrolo[3,2-b]pyrrol-1-yl-2-(2-trifluoromethyl-1H-pyrrolo[2,3-b]pyridin-4-yl)-pyrido[3,4-d]pyrimidine] stands under 100 nM.
Turning to `CC1(C)CNCC[C@@H]1Nc1nc(-c2ccnc(Nc3ncccc3F)c2)nc2cncc(C3CC3)c12` [Example 390, {5-Cyclopropyl-2-[2-(3-fluoro-pyridin-2-ylamino)-pyridin-4-yl]-pyrido[3,4-d]pyrimidin-4-yl}-((S)-3,3-dimethyl-piperidin-4-yl)-amine], the half-maximal inhibitory concentration (IC50) is under 100 nM.
For `Clc1ccccc1-c1cc2c(-c3nc(N[C@@H]4[C@@H]5CC[C@H]4CNC5)c4c(C5CC5)cncc4n3)ccnc2[nH]1` [Example 26, (1R,5S,8S)-3-Aza-bicyclo[3.2.1]oct-8-yl-{2-[2-(2-chloro-phenyl)-1H-pyrrolo[2,3-b]pyridin-4-yl]-5-cyclopropyl-pyrido[3,4-d]pyrimidin-4-yl}-amine] the value was 100 to 1000 nM.
For `Cc1cc2c(-c3nc(N(C)C4CCNCC4(C)C)c4c(C5CC5)cncc4n3)ccnc2[nH]1` (stereo not drawn) [Example 115, [5-Cyclopropyl-2-(2-methyl-1H-pyrrolo[2,3-b]pyridin-4-yl)-pyrido [3,4-d]pyrimidin-4-yl]-(3,3-dimethyl-piperidin-4-yl)-methyl-amine] the value was under 100 nM; for `CC1(C)CNCCC1Nc1nc(-c2ccnc(Nc3ccc4ccccc4n3)c2)nc2cncc(C3CCC3)c12` (stereo not drawn) [Example 86, {5-Cyclobutyl-2-[2-(quinolin-2-ylamino)-pyridin-4-yl]-pyrido[3,4-d]pyrimidin-4-yl}-(3,3-dimethyl-piperidin-4-yl)-amine], under 100 nM; for `c1cc(-c2nc(N3CCNCC3)c3c(C4CC4)cncc3n2)cc(Nc2nc(C3CC3)cs2)n1` [Example 37, [4-(5-Cyclopropyl-4 piperazin-1-yl-pyrido[3,4-d]pyrimidin-2-yl)-pyridin-2-yl]-(4-cyclopropyl-thiazol-2-yl)-amine], under 100 nM.
As to `O[C@]12CCN(c3nc(-c4ccnc5[nH]c6ccccc6c45)nc4cncc(C5CCC5)c34)[C@H]1CCNC2` (racemic) [Example 76, (±)-(3aS,7aS)-1-[5-Cyclobutyl-2-(9H-pyrido[2,3-b]indol-4-yl)-pyrido[3,4-d]pyrimidin-4-yl]-octahydro-pyrrolo[3,2-c]pyridin-3a-ol], the concentration for half-maximal inhibition (IC50) is under 100 nM.
Under `c1ccc2c(c1)oc1nccc(-c3nc(N4CCNCC4)c4c(C5CC5)cncc4n3)c12` [Example 373, 4-(5-Cyclopropyl-4-piperazin-1-yl-pyrido[3,4-d]pyrimidin-2-yl)-benzofuro[2,3-b]pyridine] stands 1000 to 10000 nM; under `CC1(C)CNCCC1Nc1nc(-c2ccnc(Nc3ncn(Cc4ccccc4)n3)c2)nc2cncc(C3CC3)c12` (racemic) [Example 237, rac-{2-[2-(1-Benzyl-1H-1,2,4-triazol-3-ylamino)-pyridin-4-yl]-5-cyclopropyl-pyrido[3,4-d]pyrimidin-4-yl}-(3,3-dimethyl-piperidin-4-yl)-amine], under 100 nM; under `CC1(C)CNCC[C@@H]1Nc1nc(-c2ccnc(Nc3ccc4ccccc4n3)c2)nc2cncc(C3CC3)c12` [Example 378, {5-Cyclopropyl-2-[2-(quinolin-2-ylamino)-pyridin-4-yl]-pyrido[3,4-d]pyrimidin-4-yl}-((S)-3,3-dimethyl-piperidin-4-yl)-amine], under 100 nM.
For `CC1(C)CNCC[C@@H]1Nc1nc(-c2ccnc3[nH]c(-c4cc(F)ccc4Cl)cc23)nc2cncc(C3CC3)c12` [Example 229, {2-[2-(2-Chloro-5-fluoro-phenyl)-1H-pyrrolo[2,3-b]pyridin-4-yl]-5-cyclopropyl-pyrido[3,4-d]pyrimidin-4-yl}-((S)-3,3-dimethyl-piperidin-4-yl)-amine], the 50% inhibitory concentration (IC50) was under 100 nM.
On to `O[C@@]12CCN(c3nc(-c4ccnc5[nH]c(-c6cc(F)ccc6Cl)cc45)nc4cncc(C5CC5)c34)[C@@H]1CCNC2` (racemic) [Example 358, rac(1R,3aS)-1-{2-[2-(2-Chloro-5-fluoro-phenyl)-1H-pyrrolo[2,3-b]pyridin-4-yl]-5-cyclopropyl-pyrido[3,4-d]pyrimidin-4-yl}-octahydro-pyrrolo[3,2-c]pyridin-3a-ol], for which the IC50 was under 100 nM.
With `CC1(C)CNCC[C@@H]1Nc1nc(-c2ccnc3[nH]c4ccccc4c23)nc2cncc(C(F)(F)F)c12` [Example 217, ((S)-3,3-Dimethyl-piperidin-4-yl)-[2-(9H-pyrido[2,3-b]indol-4-yl)-5-trifluoromethyl-pyrido[3,4-d]pyrimidin-4-yl]-amine], the IC50 was under 100 nM.
Under `Cc1nc(Nc2cc(-c3nc(N[C@H]4CCNC[C@H]4C)c4c(C5CCC5)cncc4n3)ccn2)ccc1C#N` (racemic) [Example 311, 6-{4-[5-Cyclobutyl-4-(rac-(3R,4S)-3-methyl-piperidin-4-ylamino)-pyrido[3,4-d]pyrimidin-2-yl]-pyridin-2-ylamino}-2-methyl-nicotinonitrile] stands under 100 nM.
For `Fc1ncccc1-c1cc2c(-c3nc(N4CCNCC4)c4c(C5CC5)cncc4n3)ccnc2[nH]1` [Example 43, 5-Cyclopropyl-2-[2-(2-fluoro-pyridin-3-yl)-1H-pyrrolo[2,3-b]pyridin-4-yl]-4-piperazin-1-yl-pyrido[3,4-d]pyrimidine] the value was under 100 nM; for `Fc1ccc(F)c(Nc2cc(-c3nc(N4CCOC5CNCC54)c4c(C5CC5)cncc4n3)ccn2)n1` (stereo not drawn) [Example 203, {4-[5-Cyclopropyl-4-(hexahydro-pyrrolo[3,4-b][1,4]oxazin-4-yl)-pyrido[3,4-d]pyrimidin-2-yl]-pyridin-2-yl}-(3,6-difluoro-pyridin-2-yl)-amine], 100 to 1000 nM.
